# Columns and labels:
# MEXF 462NL = experiment: Monolayer Assay, PI: MEXF 462NL (Melanoma); type: cell-based, human
# Description: (§1) This example illustrates cell proliferation data in the form of IC50, IC70 and IC90 values obtained by exposure of human cancer cell-lines to compound (Ia). […].
# MEXF 520L = experiment: Monolayer Assay, PI: MEXF 520L (Melanoma); type: cell-based, human
# Description: as §1
# PAXF PANC1 = experiment: Monolayer Assay, PI: PAXF PANC1; type: cell-based, human
# Description: as §1
# RXF 1781L = experiment: Monolayer Assay, PI: RXF 1781L (Renal); type: cell-based, human
# Description: as §1
# RXF 393NL = experiment: Monolayer Assay, PI: RXF 393NL (Renal); type: cell-based, human
# Description: as §1
# RXF 486L = experiment: Monolayer Assay, PI: RXF 486L (Renal); type: cell-based, human
# Description: as §1
# [1] = system: human colon carcinoma cells (HT29)
# [2] = system: human colon carcinoma cells (HT29); experiment: cells
smiles,measurement,setting,value
"CN[C@H]1CC[C@@H](c2ccc(Cl)c(Cl)c2)c2ccc(C#CCCCO)cc21 [compound (Ia), (1S-cis)-4-(3,4-dichlorophenyl)-7-(5-hydroxy-1-pentyn-1-yl)-1,2,3,4-tetrahydro-N-methyl-1-naphthalenamine hydroiodide]",Test/Control activity class,MEXF 462NL; 23. μg/ml,+++ (+++ (T/C < 10))
same,Test/Control (%),MEXF 462NL; 75. μg/ml,2%
same,Test/Control activity class,MEXF 462NL; 75. μg/ml,+++ (+++ (T/C < 10))
same,Test/Control (%),MEXF 462NL; .75 μg/ml,102%
same,Test/Control activity class,MEXF 462NL; .75 μg/ml,− (− (T/C = 50))
same,Test/Control (%),MEXF 520L; 2.3 μg/ml,83%
same,Test/Control activity class,MEXF 520L; 2.3 μg/ml,− (− (T/C = 50))
same,Test/Control (%),MEXF 520L; 7.5 μg/ml,8%
same,Test/Control activity class,MEXF 520L; 7.5 μg/ml,++ (++ (10 <= T/C < 30))
same,Test/Control (%),MEXF 520L; 23. μg/ml,2%
same,Test/Control activity class,MEXF 520L; 23. μg/ml,+++ (+++ (T/C < 10))
same,Test/Control (%),MEXF 520L; 75. μg/ml,4%
same,Test/Control activity class,MEXF 520L; 75. μg/ml,+++ (+++ (T/C < 10))
same,Test/Control (%),MEXF 520L; .75 μg/ml,102%
same,Test/Control activity class,MEXF 520L; .75 μg/ml,− (− (T/C = 50))
same,Test/Control (%),PAXF PANC1; 2.3 μg/ml,98%
same,Test/Control activity class,PAXF PANC1; 2.3 μg/ml,− (− (T/C = 50))
same,Test/Control (%),PAXF PANC1; 7.5 μg/ml,33%
same,Test/Control activity class,PAXF PANC1; 7.5 μg/ml,+ (+ (30 <= T/C < 50))
same,Test/Control (%),PAXF PANC1; 23. μg/ml,3%
same,Test/Control activity class,PAXF PANC1; 23. μg/ml,+++ (+++ (T/C < 10))
same,Test/Control (%),PAXF PANC1; 75. μg/ml,4%
same,Test/Control activity class,PAXF PANC1; 75. μg/ml,+++ (+++ (T/C < 10))
same,Test/Control (%),PAXF PANC1; .75 μg/ml,105%
same,Test/Control activity class,PAXF PANC1; .75 μg/ml,− (− (T/C = 50))
same,Test/Control (%),RXF 1781L; 2.3 μg/ml,76%
same,Test/Control activity class,RXF 1781L; 2.3 μg/ml,− (− (T/C = 50))
same,Test/Control (%),RXF 1781L; 7.5 μg/ml,4%
same,Test/Control activity class,RXF 1781L; 7.5 μg/ml,+++ (+++ (T/C < 10))
same,Test/Control (%),RXF 1781L; 23. μg/ml,3%
same,Test/Control activity class,RXF 1781L; 23. μg/ml,+++ (+++ (T/C < 10))
same,Test/Control (%),RXF 1781L; 75. μg/ml,3%
same,Test/Control activity class,RXF 1781L; 75. μg/ml,+++ (+++ (T/C < 10))
same,Test/Control (%),RXF 1781L; .75 μg/ml,96%
same,Test/Control activity class,RXF 1781L; .75 μg/ml,− (− (T/C = 50))
same,Test/Control (%),RXF 393NL; 2.3 μg/ml,91%
same,Test/Control activity class,RXF 393NL; 2.3 μg/ml,− (− (T/C = 50))
same,Test/Control (%),RXF 393NL; 7.5 μg/ml,5%
same,Test/Control activity class,RXF 393NL; 7.5 μg/ml,+++ (+++ (T/C < 10))
same,Test/Control (%),RXF 393NL; 23. μg/ml,1%
same,Test/Control activity class,RXF 393NL; 23. μg/ml,+++ (+++ (T/C < 10))
same,Test/Control (%),RXF 393NL; 75. μg/ml,1%
same,Test/Control activity class,RXF 393NL; 75. μg/ml,+++ (+++ (T/C < 10))
same,Test/Control (%),RXF 393NL; .75 μg/ml,96%
same,Test/Control activity class,RXF 393NL; .75 μg/ml,− (− (T/C = 50))
same,Test/Control (%),RXF 486L; 2.3 μg/ml,103%
same,Test/Control activity class,RXF 486L; 2.3 μg/ml,− (− (T/C = 50))
same,Test/Control (%),RXF 486L; 7.5 μg/ml,81%
same,Test/Control activity class,RXF 486L; 7.5 μg/ml,− (− (T/C = 50))
same,Test/Control (%),RXF 486L; 23. μg/ml,9%
same,Test/Control activity class,RXF 486L; 23. μg/ml,+++ (+++ (T/C < 10))
same,Test/Control (%),RXF 486L; 75. μg/ml,5%
same,Test/Control activity class,RXF 486L; 75. μg/ml,+++ (+++ (T/C < 10))
same,Test/Control (%),RXF 486L; .75 μg/ml,102%
same,Test/Control activity class,RXF 486L; .75 μg/ml,− (− (T/C = 50))
same,potency compared with paroxetine,"[1]; 10-30 μM, FIG. 2A",higher potency than paroxetine
same,potency compared with paroxetine and fluoxetine,"[1]; equimolar doses, FIG. 2B",significantly more potent than paroxetine and fluoxetine
same,IC50,"[2]; HT-29, read-out: IC50, viability",12.7 µM
same,viability at 30 µM,"[2]; HT-29, read-out: cell viability",30.9%
